In patent US4201790A, “Benzophenone derivatives” (May & Baker Limited, priority 1975, dated 1980):

What was measured:
[1] = Acute toxicity, mouse, intravenous; settings: in vivo, read-out: i.v. LD80
[2] = system: β-adrenoceptors mediating vasodilation; test: Test I. β-Adrenoceptor blocking activity in the anaesthetised cat (intravenous), vascular (isoprenaline fall in diastolic blood pressure); type: in vivo; settings: for i.v. Dose Vascular (dose required to reduce fall in diastolic blood pressure produced by whole dose of isoprenaline to that produced by half dose): hydrochloride salts, isoprenaline 210 seconds after test compound; for Ratio cardiac dose / vascular dose: i.v.
Protocol: (§1) Test I. β-Adrenoceptor blocking activity in the anaesthetised cat (intravenous administration).
(§2) Cats were anaesthetised with a mixture of pentobarbitone (6-12 mg./kg.) and chloralose suspension (80 mg./kg.) administered intraperitoneally. The heart rate was recorded from the E.C.G. or from the pulse, and blood pressure was recorded from the carotid artery. Whole (0.3-0.6 μg.) and half (0.15-0.3 μg.) doses of isoprenaline were then administered, intravenously via the jugular vein, alternately at 7 minute intervals over a period of several hours. 210 seconds after a half dose of isoprenaline, one of the compounds under test was administered intravenously. 210 seconds later the whole dose of isoprenaline was administered. The doses of the test compound required to reduce (1) the tachycardia and (2) the fall in diastolic blood pressure produced by the whole dose of isoprenaline to that produced by the half dose were determined. The former response gives a measure of the ability of the test compound to block β-adrenoceptors in the heart while the latter response gives a measure of the ability of the test compound to block the β-adrenoceptors mediating vasodilation.
(§3) Those hydrochloride salts of compounds A, G, H and J were dissolved in water and administered in aqueous solution. Compounds B, C, D, E, F and I were each dissolved in dilute aqueous hydrochloric acid solution (0.1 N) and the solution thus obtained was neutralised by treatment with aqueous sodium hydroxide solution (0.1 N), to give a neutral solution of the hydrochloride salt of the test compound suitable for administration.

[3] = Acute toxicity, mouse, oral; settings: in vivo
[4] = system: β-adrenoceptors in the heart; test: Test I. β-Adrenoceptor blocking activity in the anaesthetised cat (intravenous), cardiac (isoprenaline tachycardia); type: in vivo; settings: hydrochloride salts, isoprenaline 210 seconds after test compound
Protocol: as §1, §2, §3

[5] = system: β-adrenoceptors in the heart; test: Test II. β-Adrenoceptor blocking activity in the anaesthetised dog (intravenous), cardiac; type: in vivo; settings: i.v., hydrochloride salt
Protocol: as §2
(§4) Test II. β-Adrenoceptor blocking activity in the anaesthetised rhesus monkey and in the anaesthetised dog (intravenous administration)
(§5) Test compound A (hydrochloride salt) was tested intravenously in anaesthetised rhesus monkeys and dogs by proceeding in a similar fashion to that described above in Test I.

[6] = system: β-adrenoceptors mediating vasodilation; test: Test II. β-Adrenoceptor blocking activity in the anaesthetised dog (intravenous), vascular; type: in vivo; settings: i.v., hydrochloride salt
Protocol: as §2, §4, §5

[7] = system: β-adrenoceptors in the heart; test: Test III. β-Adrenoceptor blocking activity in the anaesthetised dog (oral), cardiac; type: in vivo; settings: hydrochloride salt
Protocol: as §2
(§6) Test III. β-Adrenoceptor blocking activity in the anaesthetised dog (oral administration)
(§7) Test compound A(hydrochloride salt) was tested orally in anaesthetised dogs by proceeding in a similar fashion to that described above in Test I and Test II. The results are expressed below in Table III.

[8] = Toxicity, rat, oral, two weeks; type: in vivo; settings: oral daily doses of 12, 24, 48 or 96 mg./kg. during two weeks
[9] = system: β-adrenoceptors in the heart; test: Test II. β-Adrenoceptor blocking activity in the anaesthetised rhesus monkey (intravenous), cardiac; type: in vivo; settings: i.v., hydrochloride salt
Protocol: as §2, §4, §5

[10] = Toxicity, dog, oral, two weeks; type: in vivo, dog (beagle); settings: beagles, oral daily doses of 10, 50 or 100 mg./kg. during two weeks
Protocol: Two groups, each of two males and two females, each received a daily dose of 10 or 50 mg./kg. animal body weight and one group, of one male and one female, received a daily dose of 100 mg./kg. animal body weight.

[11] = system: β-adrenoceptors mediating vasodilation; test: Test III. β-Adrenoceptor blocking activity in the anaesthetised dog (oral), vascular; type: in vivo; settings: hydrochloride salt
Protocol: as §2, §6, §7

[12] = system: β-adrenoceptors mediating vasodilation; test: Test II. β-Adrenoceptor blocking activity in the anaesthetised rhesus monkey (intravenous), vascular; type: in vivo; settings: i.v., hydrochloride salt
Protocol: as §2, §4, §5

SMILES	LD50 [1] [mg/kg]	i.v. Dose Vascular (dose required to reduce fall in diastolic blood pressure produced by whole dose of isoprenaline to that produced by half dose) [2]	Ratio cardiac dose / vascular dose [2]	i.v. Dose Cardiac (dose required to reduce tachycardia produced by whole dose of isoprenaline to that produced by half dose) [4]	further results
Cc1ccc(C(=O)c2c(C)cc(C)cc2OCC(O)CNC(C)C)cc1 (racemic) [B, DL-1-(3,5-dimethyl-2-p-toluoylphenoxy)-2-hydroxy-3-isopropylaminopropane]	25 to 31	0.031 mg./kg. animal body weight	93.5	2.9 mg./kg. animal body weight	LD50 [3]: ~1000 mg/kg
Cc1cc(C)c(C(=O)c2ccccc2)c(OCC(O)CNC(C)C)c1 (racemic) [Compound A, DL-1-(2-benzoyl-3,5-dimethylphenoxy)-2-hydroxy-3-isopropylaminopropane]	40	0.023 mg./kg. animal body weight	48	1.1 mg./kg. animal body weight	Dose cardiac ([5]; 210 second interval after dose): 0.1 mg./kg. animal body weight; Dose cardiac ([5]; one hour interval after dose): 0.13 mg./kg. animal body weight; Dose vascular ([6]; 210 second interval after dose): < 0.02 mg./kg. animal body weight; Dose vascular ([6]; one hour interval after dose): < 0.02 mg./kg. animal body weight; Oral dose cardiac ([7]; 1 hour after dose): 4 mg./kg. animal body weight; Oral dose cardiac ([7]; 2 hours after dose): 3.2 mg./kg. animal body weight; Oral dose cardiac ([7]; 3 hours after dose): 6 mg./kg. animal body weight; tolerability [8]: well tolerated; Dose cardiac ([9]; 210 second interval after dose): 0.1 mg./kg. animal body weight; Dose cardiac ([9]; one hour interval after dose): > 1 mg./kg. animal body weight; tolerability [10]: well tolerated; Oral dose vascular ([11]; 1 hour after dose): < 0.1 mg./kg. animal body weight; Oral dose vascular ([11]; 2 hours after dose): 0.08 mg./kg. animal body weight; Oral dose vascular ([11]; 3 hours after dose): 0.1 mg./kg. animal body weight; Dose vascular ([12]; 210 second interval after dose): 0.0087 mg./kg. animal body weight; Dose vascular ([12]; one hour interval after dose): 0.0076 mg./kg. animal body weight
Cc1cc(C)c(C(=O)c2ccccc2)c(OCC(O)CNC(C)C)c1C (racemic) [Compound C, DL-1-(2-benzoyl-3,5,6-trimethylphenoxy)-2-hydroxy-3-isopropylaminopropane]	23	2.3 mg./kg. animal body weight	1.9	4.4 mg./kg. animal body weight	–
Cc1ccc(C(=O)c2c(C)cc(C)cc2OCC(O)CNC(C)(C)C)cc1 (racemic) [Compound I, DL-1-t-butylamino-3-(3,5-dimethyl-2-p-toluoylphenoxy)-2-hydroxypropane]	24	0.027 mg./kg. animal body weight	17	0.46 mg./kg. animal body weight	–
Cc1ccc(C(=O)c2c(C)cc(C)cc2OCC(O)CNCCc2ccccc2)cc1 (racemic) [Compound J, DL-1-(3,5-dimethyl-2-p-toluoylphenoxy)-2-hydroxy-3-(2-phenylethylamino)propane]	–	0.068 mg./kg. animal body weight	29	~2.0 mg./kg. animal body weight	–
Cc1cc(C)c(C(=O)c2ccccc2C)c(OCC(O)CNC(C)C)c1 (racemic) [D, DL-1-(3,5-dimethyl-2-o-toluoylphenoxy)-2-hydroxy-3-isopropylaminopropane]	34	0.16 mg./kg. animal body weight	5.0	0.8 mg./kg. animal body weight	–
Cc1cc(C)c(C(=O)c2c(C)cccc2C)c(OCC(O)CNC(C)C)c1 (racemic) [E, DL-1-[2-(2,6-dimethylbenzoyl)-3,5-dimethylphenoxy]-2-hydroxy-3-isopropylaminopropane]	42	1.8 mg./kg. animal body weight	2.1	3.7 mg./kg. animal body weight	–
Cc1ccc(C(=O)c2c(C)cc(C)cc2OCC(O)CNC(C)C)c(C)c1 (racemic) [F, DL-1-[2-(2,4-dimethylbenzoyl)-3,5-dimethylphenoxy]-2-hydroxy-3-isopropylaminopropane]	24	0.24 mg./kg. animal body weight	2.5	0.59 mg./kg. animal body weight	–
Cc1ccc(C)c(C(=O)c2ccccc2)c1OCC(O)CNC(C)C (racemic) [G, DL-1-(2-benzoyl-3,6-dimethylphenoxy)-2-hydroxy-3-isopropylaminopropane]	–	4.2 mg./kg. animal body weight	1.7	7.1 mg./kg. animal body weight	–
Cc1cc(C)c(C(=O)c2ccc(Cl)cc2)c(OCC(O)CNC(C)C)c1 (racemic) [H, DL-1-(2-p-chlorobenzoyl-3,5-dimethylphenoxy)-2-hydroxy-3-isopropylaminopropane]	32 to 40	0.037 mg./kg. animal body weight	19	0.72 mg./kg. animal body weight	–
